Measurements reported in paper PMC5408566 (2016).

Tests used:
[1] = system: ATP DAs on ACE microarray (Cy3 ATP DNA Aptamer) (DNA, aptamer) TCACTGACCTGGGGGAGTATTGCGGAGGAAGGT; experiment: surface fluorescence loss (aptamer release), non-equilibrium; conditions: immobilised ACE microarray; negative control ligand; no induced fit binding
[2] = system: 5′Q-5C:12 DA (Cy3 ATP DNA Aptamer with 5′Q-5C:12 ACE) (DNA, aptamer) TCACTGACCTGGGGGAGTATTGCGGAGGAAGGT; experiment: solution FRET (Cy3/BHQ-2) equilibrium titration; conditions: 300 mM Na+, 5 mM Mg2+; apparent; 25 °C; 200 nM aptamer; quencher ACE 5′Q-5C:12 displaced, Q:F 1:1; n = 1.3
[3] = system: 5′Q-5C:11 DA (Cy3 ATP DNA Aptamer with 5′Q-5C:11 ACE) (DNA, aptamer) TCACTGACCTGGGGGAGTATTGCGGAGGAAGGT; experiment: solution FRET (Cy3/BHQ-2) equilibrium titration; conditions: 300 mM Na+, 5 mM Mg2+; apparent; 25 °C; 200 nM aptamer; quencher ACE 5′Q-5C:11 displaced, Q:F 1:1; n = 1.2
[4] = system: 5′Q-5C:10 DA (Cy3 ATP DNA Aptamer with 5′Q-5C:10 ACE) (DNA, aptamer) TCACTGACCTGGGGGAGTATTGCGGAGGAAGGT; experiment: solution FRET (Cy3/BHQ-2) equilibrium titration; conditions: 300 mM Na+, 5 mM Mg2+; apparent; 25 °C; 200 nM aptamer; quencher ACE 5′Q-5C:10 displaced, Q:F 1:1; n = 1.0
[5] = system: 5′Q-5C:9 DA (Cy3 ATP DNA Aptamer with 5′Q-5C:9 ACE) (DNA, aptamer) TCACTGACCTGGGGGAGTATTGCGGAGGAAGGT; experiment: solution FRET (Cy3/BHQ-2) equilibrium titration; conditions: 300 mM Na+, 5 mM Mg2+; apparent; 25 °C; 200 nM aptamer; quencher ACE 5′Q-5C:9 displaced, Q:F 1:1; n = 0.7
[6] = system: 5′Q-2T:9 DA (Cy3 ATP DNA Aptamer with 5′Q-2T:9 ACE) (DNA, aptamer) TCACTGACCTGGGGGAGTATTGCGGAGGAAGGT; experiment: solution FRET (Cy3/BHQ-2) equilibrium titration; conditions: 300 mM Na+, 5 mM Mg2+; apparent; 25 °C; 200 nM aptamer; quencher ACE 5′Q-2T:9 displaced, Q:F 1:1; n = 1.3

Row | binding [1] | Kd,Exp Obs [2] [µM] | Kd,Exp Obs [3] [µM] | Kd,Exp Obs [4] [µM] | Kd,Exp Obs [5] [µM] | Kd,Exp Obs [6] [µM] | Compound
1 | no | – | – | – | – | – | Nc1nc2c(ncn2[C@@H]2O[C@H](COP(=O)(O)OP(=O)(O)OP(=O)(O)O)[C@@H](O)[C@H]2O)c(=O)[nH]1
2 | – | 1370 | 663 | 163 | 4700 | 85 | Nc1ncnc2c1ncn2[C@@H]1O[C@H](COP(=O)(O)OP(=O)(O)OP(=O)(O)O)[C@@H](O)[C@H]1O
